Test results published in US7321000B2, “Ophthalmic composition containing N-acetyl-cysteine for the treatment of dry-eye syndrome” (Farmigea S.p.A., priority 2001, dated 2008).

Test: Stability studies: autoclaving, colorimetric determination of N-AC
Type: physicochemical
Conditions: 120° C., 20 min.; both in the presence and absence of benzalkonium chloride
Protocol: The formulations underwent autoclaving (120° C., 20 min.): as highlighted in the prior art, N-acetyl-cysteine is degraded by about 30% (both in the presence and absence of benzalkonium chloride). It is, however, possible to carry out sterilisation by filtering through a 0.2 μm membrane, as was performed in the aforesaid examples.
In order to evaluate the stability of N-AC in the vehicle, it is not possible to use the HPLC method or ultraviolet spectrophotometry. The following calorimetric method was thus employed (Raggi M. A., Cavrini V. and Di Pietra A. M., Colorimetric determination of acetylcysteine, penicillamine and mercaptopropionylglycine in pharmaceutical dosage forms, J. Pharm. Sci., 71, 1384-1386 (1982)).
0.163 g of acetylcysteine is dissolved in 500 ml of distilled H2O. By diluting in a proportion of 1:5, the required concentration is obtained.
Increasing volumes of this solution (1-5 ml) are placed in a 25 ml flask and then the following are added in succession:
After 20 min the absorbance is measured at 515 nm by using as reference a control prepared at the same time as the sample.
The procedure described above was also applied to carry out the calibration of N-AC in the presence of DEAE-dextrane. For these samples, the measurement was carried out by using as reference a control containing the polymer and also a control without DEAE-dextrane.

degradation of N-acetyl-cysteine on autoclaving: about 30%
SMILES: CC(=O)N[C@@H](CS)C(=O)O [N-acetyl-cysteine]
